IC50 data for 15 compounds are collected here from patent US20260325533A1, “CDK INHIBITOR COMPOUNDS” (ALEKSIA THERAPEUTICS, INC., priority 2023, published 2026).

Where two headings read alike, the source gives them in different places.

Common to all, as to format: biochemical
The target of one assay is CDK6/CCND1 (Homo sapiens, UniProt Q00534). The experiment in a line: CDK6 homogeneous time-resolved fluorescence (HTRF) kinase assay. The conditions noted are these: CDK6/CCND. How it is done:
(§1) A CDK homogeneous time-resolved fluorescence (HTRF) assay was used to assess the potency of the compounds described herein.
(§2) To an untreated 384-well microtiter plate (ProxiPlate) was added 100 nL 100×test compound in DMSO and 5 μL 2×CDK enzyme in assay buffer (50 mM HEPES, 1 mM EGTA, 10 mM MgCl2, 0.01% Tween 20, 2 mM DTT). The plate was centrifuged at 800 RPM for 1 min then incubated for 20 min at 23 °C. 2.5 μL per well of 4×ATP and 2.5 μL 4×ULight™-eIF4E-binding protein 1 (Thr37/46) Peptide substrate were added to all wells. After addition, the plates were centrifuged at 800 RPM for 1 min. The plates were incubated at 23 °C for 60 min. 5 μL per well 4×EDTA solution were added to each well to stop the reaction. 5 μL 4×LANCE Ultra Europium-anti-phospho-eIF4E-binding protein 1 (Thr37/46) antibody were added to each well and the plate was centrifuged for 1 min at 800 RPM. The plate was incubated for 60 min at 23 °C. Fluorescence was read at 340 nm excitation and 665 nm emission on an EnVision 2105 fluorescence reader. The final concentrations of reagents in the activity assay were 1 nM CDK6/CCND1, 1 mM ATP, 50 nM ULight™-eIF4E-binding protein 1 (Thr37/46) Peptide substrate, 1% DMSO, 10 mM EDTA, and 2 nM LANCE Ultra Europium-anti-phospho-eIF4E-binding protein 1 (Thr37/46).
(§3) Dose-response titrations were conducted by using an 11-point, half-logarithmic serial dilution scheme typically starting at 10 μM. Signals were reported as fluorescence units at 665 nm or the ratio of fluorescence units at 665 nm/fluorescence units at 615 nm. Signals are referred to below as “Lance signals”.
(§4) Using this assay, the IC50 values of example compounds were determined. Table 3 illustrates the IC50 for various Example compounds of Formula IA. Table 4 illustrates the IC50 for various other Example compounds of Formula I. ND=not determined.

For another assay, the target named is CDK4/CCND3 (Homo sapiens, UniProt P11802). The experiment in a line: CDK4 homogeneous time-resolved fluorescence (HTRF) kinase assay. The following applies: CDK4/CCND. How it is done:
as §1
as §2, with “were 1.5” for “were 1”, “nM CDK4/CCND3,” for “nM CDK6/CCND1,”
as §3, §4
(Time-resolved FRET reads energy transfer from a long-lived donor to a nearby acceptor.)

Another assay concerns the target CDK2/CCNE1 (Homo sapiens, UniProt P24941). As to the kind of experiment: CDK2 homogeneous time-resolved fluorescence (HTRF) kinase assay. The following applies: CDK2/CCNE. A digest of the protocol:
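TR-FRET read-out (665 nm, or 665/615 ratio) of Eu-antibody detection of phospho-4E-BP1 (Thr37/46) ULight peptide. Enzyme 3 nM, ATP 1 mM, peptide 50 nM, 1% DMSO; 60 min reaction at 23 °C after 20 min compound preincubation. IC50 from 11-point half-log titrations, top typically 10 μM.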

The target of another assay is CDK1/CCNB1 (Homo sapiens, UniProt P06493). The experiment in a line: CDK1 homogeneous time-resolved fluorescence (HTRF) kinase assay. The following applies: CDK1/CCNB. In a few lines: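 Read-out: TR-FRET (Eu anti-phospho-4E-BP1 Thr37/46 antibody, 2 nM; 665 nm or 665/615 ratio) after 60 min phosphorylation of 50 nM ULight-peptide by 0.5 nM CDK1/CCNB1 at 1 mM ATP, 23 °C. Compound preincubated 20 min with enzyme; 1% DMSO.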
Sequence of CDK1/CCNB1 (P06493 whole entry): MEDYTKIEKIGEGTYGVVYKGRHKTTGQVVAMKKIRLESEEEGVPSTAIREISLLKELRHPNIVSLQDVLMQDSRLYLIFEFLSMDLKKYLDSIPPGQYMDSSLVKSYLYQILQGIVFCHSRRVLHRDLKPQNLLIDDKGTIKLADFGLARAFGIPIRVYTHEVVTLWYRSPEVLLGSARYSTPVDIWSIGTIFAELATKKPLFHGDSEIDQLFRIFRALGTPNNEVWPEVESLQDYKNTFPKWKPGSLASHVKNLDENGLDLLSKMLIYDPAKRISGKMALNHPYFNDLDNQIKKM
Sequence of CDK1/CCNB1 (P14635 whole entry partner): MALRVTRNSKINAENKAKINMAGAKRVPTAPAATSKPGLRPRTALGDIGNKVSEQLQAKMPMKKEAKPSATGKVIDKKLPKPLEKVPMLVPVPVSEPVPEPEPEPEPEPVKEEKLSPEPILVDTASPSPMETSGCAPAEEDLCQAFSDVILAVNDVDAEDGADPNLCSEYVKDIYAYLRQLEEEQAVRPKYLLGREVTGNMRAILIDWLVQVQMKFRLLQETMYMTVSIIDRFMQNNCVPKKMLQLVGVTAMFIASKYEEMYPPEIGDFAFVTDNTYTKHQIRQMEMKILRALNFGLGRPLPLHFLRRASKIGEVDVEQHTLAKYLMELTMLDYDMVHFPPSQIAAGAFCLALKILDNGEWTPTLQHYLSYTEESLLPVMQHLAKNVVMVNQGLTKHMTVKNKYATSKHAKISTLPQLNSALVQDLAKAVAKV

Setting [1] is: 25-250 nM marked x, read-out: CDK6/CCND IC50 25-250 nM.
The mark [2] stands for this setting: 25-250 nM marked x, read-out: CDK4/CCND IC50 25-250 nM.
Setting [3] is: <25 nM, read-out: CDK2/CCNE IC50 <25 nM.
Setting [4] is: >250 nM marked x, read-out: CDK1/CCNB IC50 >250 nM.
Where [5] appears, read: <25 nM, read-out: CDK6/CCND IC50 <25 nM.
The mark [6] stands for this setting: <25 nM, read-out: CDK4/CCND IC50 <25 nM.
[7] abbreviates: 25-250 nM marked x, read-out: CDK1/CCNB IC50 25-250 nM.
The mark [8] stands for this setting: 25-250 nM marked x, read-out: CDK2/CCNE IC50 25-250 nM.

Sequence of CDK4/CCND3 (P11802 whole entry): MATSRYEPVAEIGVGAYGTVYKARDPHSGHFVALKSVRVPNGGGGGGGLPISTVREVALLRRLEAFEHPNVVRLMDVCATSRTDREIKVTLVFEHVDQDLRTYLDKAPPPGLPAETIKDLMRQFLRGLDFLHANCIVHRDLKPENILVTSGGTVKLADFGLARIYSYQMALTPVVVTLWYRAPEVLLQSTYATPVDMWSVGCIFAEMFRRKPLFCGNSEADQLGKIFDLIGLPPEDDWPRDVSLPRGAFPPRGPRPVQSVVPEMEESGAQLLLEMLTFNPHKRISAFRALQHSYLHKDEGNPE
Sequence of CDK4/CCND3 (P30281 whole entry partner): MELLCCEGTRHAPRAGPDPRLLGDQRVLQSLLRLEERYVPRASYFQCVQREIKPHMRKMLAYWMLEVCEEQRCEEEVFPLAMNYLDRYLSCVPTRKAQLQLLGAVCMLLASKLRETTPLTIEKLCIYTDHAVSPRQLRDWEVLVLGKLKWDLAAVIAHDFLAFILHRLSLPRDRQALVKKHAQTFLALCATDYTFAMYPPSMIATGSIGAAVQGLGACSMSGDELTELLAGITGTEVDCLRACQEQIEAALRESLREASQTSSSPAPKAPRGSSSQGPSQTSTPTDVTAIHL
Sequence of CDK6/CCND1 (Q00534 whole entry): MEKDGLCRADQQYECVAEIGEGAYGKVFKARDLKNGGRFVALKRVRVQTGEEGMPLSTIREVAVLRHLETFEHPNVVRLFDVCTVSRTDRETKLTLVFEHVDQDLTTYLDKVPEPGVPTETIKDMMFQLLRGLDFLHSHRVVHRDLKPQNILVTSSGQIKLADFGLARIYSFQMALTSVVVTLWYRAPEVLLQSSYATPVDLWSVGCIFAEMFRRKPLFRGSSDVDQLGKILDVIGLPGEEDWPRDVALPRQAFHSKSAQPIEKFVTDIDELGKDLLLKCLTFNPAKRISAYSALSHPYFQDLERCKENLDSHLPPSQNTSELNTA
Sequence of CDK6/CCND1 (P24385 whole entry partner): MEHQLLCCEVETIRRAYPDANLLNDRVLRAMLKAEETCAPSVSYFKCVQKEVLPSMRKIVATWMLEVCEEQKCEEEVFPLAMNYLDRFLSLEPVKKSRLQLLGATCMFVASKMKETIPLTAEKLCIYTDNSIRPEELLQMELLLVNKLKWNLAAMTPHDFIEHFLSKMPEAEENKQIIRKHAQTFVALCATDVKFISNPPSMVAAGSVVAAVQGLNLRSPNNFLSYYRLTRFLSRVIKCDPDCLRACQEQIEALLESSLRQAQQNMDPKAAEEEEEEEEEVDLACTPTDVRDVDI

As to `CS(=O)(=O)N1CCC(Nc2cc3c(N4CCC(O)C4)nccc3cn2)CC1` (racemic) [Ex 26, 1-(7-((1-(methylsulfonyl)piperidin-4-yl)amino)-2,6-naphthyridin-1-yl)pyrrolidin-3-ol], the IC50 is 25 to 250 nM at CDK6/CCND1 (setting [1]), 25 to 250 nM at CDK4/CCND3 (setting [2]), < 25 nM at CDK2/CCNE1 (setting [3]) and > 250 nM at CDK1/CCNB1 (setting [4]).
As for `CC1CCCCN1c1nccc2cnc(NC3CCN(S(C)(=O)=O)CC3)cc12` (racemic) [Ex 34, 5-(2-methylpiperidin-1-yl)-N-(1-(methylsulfonyl)piperidin-4-yl)-2,6-naphthyridin-3-amine], the IC50 at CDK6/CCND1 (setting [5]) was < 25 nM; on CDK4/CCND3 (setting [6]), < 25 nM; at CDK2/CCNE1 (setting [3]), < 25 nM; at CDK1/CCNB1 (setting [7]) it was 25 to 250 nM.
Regarding `CS(=O)(=O)N1CCC(Nc2cc3c(N4CCCC(C#N)C4)nccc3cn2)CC1` (racemic) [Ex 39, 1-(7-((1-(methylsulfonyl)piperidin-4-yl)amino)-2,6-naphthyridin-1-yl)piperidine-3-carbonitrile], the IC50 at CDK6/CCND1 (setting [5]) is < 25 nM; at CDK4/CCND3 (setting [2]), 25 to 250 nM; at CDK2/CCNE1 (setting [3]), < 25 nM; on CDK1/CCNB1 (setting [7]) it was 25 to 250 nM.
Regarding `CS(=O)(=O)N1CCC(Nc2cc3c(N4CCCC(CO)C4)nccc3cn2)CC1` (racemic) [Ex 40, (1-(7-((1-(methylsulfonyl)piperidin-4-yl)amino)-2,6-naphthyridin-1-yl)piperidin-3-yl)methanol], the IC50 was 25 to 250 nM on CDK6/CCND1 (setting [1]), 25 to 250 nM at CDK4/CCND3 (setting [2]), < 25 nM at CDK2/CCNE1 (setting [3]) and 25 to 250 nM on CDK1/CCNB1 (setting [7]).
As for `CS(=O)(=O)N1CCC(Nc2cc3c(N4CCCC(O)C4)nccc3cn2)CC1` (racemic) [Ex 42, 1-(7-((1-(methylsulfonyl)piperidin-4-yl)amino)-2,6-naphthyridin-1-yl)piperidin-3-ol], the IC50 on CDK6/CCND1 (setting [1]) is 25 to 250 nM; on CDK4/CCND3 (setting [2]), 25 to 250 nM; on CDK2/CCNE1 (setting [3]), < 25 nM; at CDK1/CCNB1 (setting [7]), 25 to 250 nM.
For `CS(=O)(=O)N1CCC(Nc2cc3c(N4CCC(C#N)C4)nccc3cn2)CC1` (racemic) [Ex 45, 1-(7-((1-(methylsulfonyl)piperidin-4-yl)amino)-2,6-naphthyridin-1-yl)pyrrolidine-3-carbonitrile], the IC50 is 25 to 250 nM at CDK6/CCND1 (setting [1]), 25 to 250 nM on CDK4/CCND3 (setting [2]), < 25 nM on CDK2/CCNE1 (setting [3]) and > 250 nM on CDK1/CCNB1 (setting [4]).
With `CN(C)C1CCCN(c2nccc3cnc(NC4CCN(S(C)(=O)=O)CC4)cc23)CC1` (racemic) [Ex 52, 5-(4-(dimethylamino)azepan-1-yl)-N-(1-(methylsulfonyl)piperidin-4-yl)-2,6-naphthyridin-3-amine], the IC50 was < 25 nM at CDK6/CCND1 (setting [5]), < 25 nM on CDK4/CCND3 (setting [6]), 25 to 250 nM at CDK2/CCNE1 (setting [8]) and > 250 nM on CDK1/CCNB1 (setting [4]).
With `O=C(NC1CCSC1=O)c1ccc(Nc2cc3c(C4=CCCCC4)nccc3cn2)cc1` (racemic) [Ex 114, 4-((5-(cyclohex-1-en-1-yl)-2,6-naphthyridin-3-yl)amino)-N-(2-oxotetrahydrothiophen-3-yl)benzamide], the IC50 on CDK6/CCND1 (setting [5]) is < 25 nM; at CDK4/CCND3 (setting [6]), < 25 nM; at CDK2/CCNE1 (setting [3]), < 25 nM; at CDK1/CCNB1 (setting [7]), 25 to 250 nM.
As for `CS(=O)(=O)c1ccc(Nc2cc3c(C4=CCC(O)CC4)nccc3cn2)cc1` (racemic) [Ex 120, 4-(7-((4-(methylsulfonyl)phenyl)amino)-2,6-naphthyridin-1-yl)cyclohex-3-en-1-ol], the IC50 on CDK6/CCND1 (setting [1]) is 25 to 250 nM; on CDK4/CCND3 (setting [2]), 25 to 250 nM; at CDK2/CCNE1 (setting [3]), < 25 nM; at CDK1/CCNB1 (setting [4]) it was > 250 nM.
As for `CS(=O)(=O)c1ccc(Nc2cc3c(C4=CCC(C#N)CC4)nccc3cn2)cc1` (racemic) [Ex 121, 4-(7-((4-(methylsulfonyl)phenyl)amino)-2,6-naphthyridin-1-yl)cyclohex-3-ene-1-carbonitrile], the IC50 at CDK6/CCND1 (setting [1]) was 25 to 250 nM; on CDK4/CCND3 (setting [2]), 25 to 250 nM; at CDK2/CCNE1 (setting [3]), < 25 nM; on CDK1/CCNB1 (setting [4]), > 250 nM.
Take `C=CS(=O)(=O)c1ccc(Nc2cc3c(N4CCC(C#N)C4)nccc3cn2)cc1` (racemic) [Ex 122, 1-(7-((4-(vinylsulfonyl)phenyl)amino)-2,6-naphthyridin-1-yl)pyrrolidine-3-carbonitrile]: the IC50 is > 250 nM at CDK6/CCND1 (>250 nM marked x, read-out: CDK6/CCND IC50 >250 nM); > 250 nM on CDK4/CCND3 (>250 nM marked x, read-out: CDK4/CCND IC50 >250 nM); 25 to 250 nM at CDK2/CCNE1 (setting [8]); > 250 nM on CDK1/CCNB1 (setting [4]).
Take `CS(=O)(=O)c1ccc(Nc2cc3c(C#CC4CC(O)C4)nccc3cn2)cc1` (racemic) [Ex 147, 3-((7-((4-(methylsulfonyl)phenyl)amino)-2,6-naphthyridin-1-yl)ethynyl)cyclobutan-1-ol]: the IC50 is 25 to 250 nM at CDK6/CCND1 (setting [1]), 25 to 250 nM on CDK4/CCND3 (setting [2]), < 25 nM on CDK2/CCNE1 (setting [3]) and 25 to 250 nM at CDK1/CCNB1 (setting [7]).
On to `Cc1c(-c2nccc3cnc(Nc4ccc(S(C)(=O)=O)cc4)cc23)ccc2c1cnn2CC1CCNC1` (racemic) [Ex 193, 5-(4-methyl-1-(pyrrolidin-3-ylmethyl)-1H-indazol-5-yl)-N-(4-(methylsulfonyl)phenyl)-2,6-naphthyridin-3-amine], for which the IC50 was 25 to 250 nM at CDK6/CCND1 (setting [1]), 25 to 250 nM at CDK4/CCND3 (setting [2]), < 25 nM at CDK2/CCNE1 (setting [3]) and > 250 nM at CDK1/CCNB1 (setting [4]).
On to `CS(=O)(=O)N1CCC(Nc2cc3c(-c4ccc(C#N)nc4)nccc3cn2)CC1` [Ex 61, 5-(7-((1-(methylsulfonyl)piperidin-4-yl)amino)-2,6-naphthyridin-1-yl)picolinonitrile], for which the IC50 at CDK6/CCND1 (setting [1]) is 25 to 250 nM; at CDK4/CCND3 (setting [2]), 25 to 250 nM; at CDK1/CCNB1 (setting [4]) it was > 250 nM.
Turning to `CCC1(CC)C(=O)Nc2cc(C#Cc3nccc4cnc(Nc5ccc(S(=O)(=O)C6CC6)cc5)cc34)ccc21` [Ex 408, 6-((7-((4-(cyclopropylsulfonyl)phenyl)amino)-2,6-naphthyridin-1-yl)ethynyl)-3,3-diethylindolin-2-one], the IC50 on CDK6/CCND1 (x = IC50 >250 nM, read-out: CDK6/CCND IC50 (>250 nM column)) is > 250 nM; at CDK4/CCND3 (x = IC50 >250 nM, read-out: CDK4/CCND IC50 (>250 nM column)), > 250 nM; at CDK1/CCNB1 (x = IC50 >250 nM, read-out: CDK1/CCNB IC50 (>250 nM column)), > 250 nM.
